In PMC9606270, “First direct evidence for direct cell-membrane penetrations of polycationic homopoly(amino acid)s produced by bacteria” (Communications Biology, 2022):

B1: Cre: recombinant Cre recombinase (38 kDa), unconjugated control (protein, UniProt P06956 1-343, looked up)
Recombinase cre: MSNLLTVHQNLPALPVDATSDEVRKNLMDMFRDRQAFSEHTWKMLLSVCRSWAAWCKLNNRKWFPAEPEDVRDYLLYLQARGLAVKTIQQHLGQLNMLHRRSGLPRPSDSNAVSLVMRRIRKENVDAGERAKQALAFERTDFDQVRSLMENSDRCQDIRNLAFLGIAYNTLLRIAEIARIRVKDISRTDGGRMLIHIGRTKTLVSTAGVEKALSLGVTKLVERWISVSGVADDPNNYLFCRVRKNGVAAPSATSQLSTRALEGIFEATHRLIYGAKDDSGQRYLAWSGHSARVGAARDMARAGVSIPEIMQAGGWTNVNIVMNYIRNLDSETGAMVRLLEDGD
B2: 16: Cre recombinase (38 kDa) conjugated with 8 (conjugate, UniProt P06956 1-343, looked up)
Recombinase cre: B1 Recombinase cre
modifications: conjugated to ε-poly-α-lysine polymer 8

Tests used:
HeLa cells = conditions: cited from earlier work
From the text: page 5: Response to reviewers … Reviewer #1: Thank you so much for your valuable comments concerning our original manuscript. Your comment #1: The manuscript is well prepared and written except for the cytotoxicity of these polycationic isopeptides. […] However, we did n ...

peptidases/proteinases = conditions: due to isopeptide-bond linkages; cited from earlier work
From the text: In this context, a bacterium-origin polycationic polymer, ε-PαL (1) (Fig. 1a), has garnered increasing interest in recent years as an alternative to canonical cationic CPPs. […] However, the cati ... || Practical intracellular delivery of biological macromolecules (biopharmaceuticals) would dramatically transform therapeutic approaches and foster experimental breakthroughs because numerous potential drug targets (cytokines, growth factors, and signal transduction proteins) are in the cell interior[44]. CPPs are among the most promising strategies, and CPP-driven technology currently revolves around natural and synthetic eupeptides. Poly-L/D-arginine[13]–[15], poly-L-histidine[45], and poly-L/D-lysine[46], which were chemically or genetically produced, have been used as CPPs. To enable the del ...

mammalian cells = conditions: cited from earlier work
From the text: (§1) In this context, a bacterium-origin polycationic polymer, ε-PαL (1) (Fig. 1a), has garnered increasing interest in recent years as an alternative to canonical cationic CPPs. […] However, the cati ...

[1] = cited from earlier work
From the text: as §1

[2] = cited from earlier work; remark: listed apart in the source
From the text: To address the growing worldwide demand for CPPs, structurally and functionally distinct CPPs are required to circumvent the canonical CPP drawbacks such as cytotoxicity. This study, therefore, focused on the cytotoxicities of ε-PαL (1) against mammalian cells, while the nontoxicity of 1 in vivo has also been reported so that ε-PαL is used as a natural food preservative in several countries[1],[42]. However, the in vitro cytotoxicity of 1 in other cell lines has remained unclear. We therefore performed the MTT cell viability assay with 1 in K562, HepG2, and HEK293T cells in addition to HeLa ce ...

[3] = system: Cre/loxP recombination in HEK293T cells; assay: Cre/loxP recombination by intracellularly delivered Cre (reporter plasmid pmKO_loxP_mAG); assay type: cell-based, human; conditions: HEK293T transfected with pmKO_loxP_mAG; 50 μM, 60 min, 37°C, then 24 h culture; microscopy; mean ± s.d. (n = 3)
From the text: The synthetic DNA fragment carrying two loxP sequences, one TGA stop codon, and the ampicillin resistance gene (Amp^r gene) (Supplementary Table 30) was ligated with pmKO1-MC1 digested by Bam HI and Eco RI. The resulting plasmid, pmKO_loxP, was digested with Eco RI and Hind III and ligated with the mAG gene fragment amplified by the PCR primers (pmKO1_mAG-F and pmKO1_mAG-R, Supplementary Table 29) to yield the Cre activity reporter plasmid (pmKO_loxP_mAG).
HEK293T cells were transfected with the plasmid pmKO_loxP_mAG using FuGENE Transfection (Promega) according to the manufacturer’s specifications. The cells were washed with DMEM medium and then treated with 50 µM of ε-PαL-Cre (16) at 37 °C for 60 min. The cells were then washed with PBS, followed by 100 µg ml^−1 heparin in PBS, and then two more times with PBS. Finally, fresh DMEM containing 10% FBS was added and incubated at 37 °C for 24 h to express a fluorescent protein. The live-cell imaging was captured by fluorescence microscopy (Leica DMi8).

Molecule | Proteolytic resistance (peptidases/proteinases) | Gene recombination ratio (green cells) [3] | further results
ε-oligo-L-β-lysine [Compound 2] | resistant to peptidases/proteinases |  | Cytotoxicity in HeLa cells (HeLa cells): no cytotoxicity
ε-poly-L-α-lysine [Compound 1] | proteolytic resistance |  | Cytotoxicity (mammalian cells): nondetectable levels; Antimicrobial activities [1]: potent; Toxicity in vivo [2]: nontoxicity
B1 |  | 6.8% ± 0.1% | 
B2 |  | 65.6% ± 2.7% | 
